Results on two molecules are retold here after article PMC8636514, “Therapeutic potential of TRPM8 antagonists in prostate cancer” (Scientific Reports, 2021).

The test system of experiment [1] is 22Rv1 cells. The experiment is described as follows: Transmigration assay, 22Rv1 cells. Format: cell-based, human. The settings on record: 10 nM R1881, compound 1 μM; compared with LNCaP. Here is the method: (§1) In wound scratch analysis, 1.8 × 10^5 cells were seeded in a 24-well plate and made quiescent. Cells were then wounded using 10 µl sterile pipette tips and washed with PBS. They were left un-stimulated or stimulated for the indicated times, in the absence or presence of the selected compounds. To avoid cell proliferation, cytosine arabinoside (Sigma-Aldrich) at 50 μM (final concentration) was included in the cell medium. Different fields were analysed by contrast-phase microscopy, as below described in this section. Migration and invasion assays were done as reported. In migration assay, we used 3 × 10^4 cells in collagen pre-coated Boyden’s chambers with 8 μm polycarbonate membrane (Falcon). The indicated stimuli were added to the upper and the lower chambers. […] Migrating and invading cells were scored by fluorescence microscopy, as below described in this section.
(§2) In wound scratch assay, different fields were analysed using DMIRB inverted microscope (Leica) equipped with N-Plan 10 × objective (Leica), as reported. LNCaP organoids were analysed using the same microscope equipped with C-Plan 40 × or HCX PL Fluotar 63 × objectives (Leica). […] The relative organoid size was calculated using the same software and expressed as a fold increase over the basal organoid size (measured at 3th day). The wound gap was calculated using Image J Software and expressed as % of the decrease in the wound area. […]

Experiment [2] relates to DU-CaP cells. Put plainly: Invasion assay, DU-CaP cells. The conditions noted are these: 10 nM R1881, compound 1 μM; compared with LNCaP. Type of experiment: cell-based, human. How it is done:
as §1, §2

For experiment [3], the system named is PC3 cells. The experiment is described as follows: DNA synthesis (BrdU incorporation) in PC3 cells. The conditions noted are these: cycling or androgen-stimulated (10 nM R1881) cells, compound 1 µM. Type of experiment: cell-based. How it is done: Cells on coverslips were pulsed in vivo with BrdU (Sigma-Aldrich; at 100 μM, final concentration) and left unchallenged or challenged with 10 nM R1881 for 18 h, in the absence or presence of the indicated compounds. Cells were fixed, permeabilized, washed and the BrdU incorporation was analysed as reported. Nuclei were stained with Hoechst and cells on coverslips were scored by IF microscopy, using a DMLB Leica (Leica) fluorescent microscope, equipped with HCX PL Apo 63 × oil objective. Different fields from each coverslip were analyzed and BrdU incorporation was calculated by the formula: percentage of BrdU-positive cells = (No. of BrdU-positive cells/No. of total cells) × 100. Data in the graphs derive from at least 1000 scored cells for each coverslip. Representative images were captured using DC480 camera (Leica) and acquired using Leica Suite software. They are representative of three different experiments.

In experiment [4] the test system is LNCaP cells. Put plainly: Wound scratch assay in LNCaP cells. Format: cell-based, human. The conditions noted are these: 10 nM R1881, 20 h, compound 1 μM. Here is the method: as §1, §2
Experiment [5] deals with T1, human TRPM8 (Homo sapiens, UniProt Q7Z2W7).
T1 construct: expressed in transfected cells; host or cells: HEK-293/TRPM8 exon1 K3 cells
The experiment is described as follows: Patch-clamp assay on TRPM8 channels (HEK-293/TRPM8 cells, menthol-evoked currents). Format: cell-based. Here is the method: Patch clamp experiments for compounds 4, 5 and 9 were done as described. HEK-293/TRPM8 exon 1 cells were seeded 3 or 4 days before experiment at a concentration of 4 and 2.5 million cells, respectively, onto a T225 flask. Before each experiment, cells were washed two times with D-PBS without Ca^2+/Mg^2+ (Euroclone, Milan, Italy) and trypsinized with trypsin−EDTA (Sigma-Aldrich; diluted 1/10). Cells were suspended in 25 mL of EX-CELL ACF CHO medium (Sigma-Aldrich, Milan, Italy), 0.625 mL of HEPES (Lonza, Walkersville, USA), 0.25 mL of 100 × penicillin/streptomycin (Lonza, Walkersville, USA), 0.1 mL of soybean trypsin inhibitor 10 mg/mL (Sigma-Aldrich), and placed on the automated patch-clamp platform (QPatch 16X, Sophion Bioscience, Ballerup, Denmark). A stock solution of L-Menthol (1 M, 100% DMSO), used as reference agonist, was freshly prepared. A diluted stock of 300 mM was prepared from the 1 M stock in 100% DMSO, and a final dilution was obtained using the extracellular solution to give a working concentration of 300 μM (1:1000, 0.1% final DMSO concentration). Stock solutions of the testing compounds (10 mM; 100% DMSO; stored at − 20 °C) were freshly prepared, as well. Further dilution of these stock solutions to a final concentration of 300 μM was performed from the 10 mM stock in 100% DMSO, and the working dilutions were performed just before the experiments using the extracellular solution containing 300 μM menthol. The highest concentration tested was 300 nM, with serial dilutions (1:10). DMSO was balanced to keep it constant throughout all the solutions in the same experiment (0.2% final DMSO concentration). Standard whole-cell voltage clamp experiments were performed at room temperature using the multihole technology. For the voltage clamp experiments on human TRPM8, data were sampled at 2 kHz. After establishment of the seal and the passage in the whole cell configuration, the cells were subjected to a voltage ramp (20 ms step at − 60 mV; 100 ms ramp − 60/ + 100 mV; 20 ms step at + 100 mV; return to − 60 mV) every 4 s. The antagonistic effect on human TRPM8 current of target compounds was evaluated after application of the agonist (menthol, 300 μM), in the absence or presence of increasing concentrations of the compound under investigation. Outward current evoked by the voltage ramp, measured in the step at + 100 mV were measured. The intracellular solution contained (mM) 135 CsCl, 10 BAPTA, 10 HEPES, 4 Na2ATP (pH 7.2 with CsOH). The extracellular solution contained (mM) 145 NaCl, 4 KCl, 1 MgCl2, 2 CaCl2, 10 HEPES, 10 glucose (pH 7.4 with NaOH). TRPM8 modulation by final compounds 3 and 6 has been previously determined by patch clamp measurements[29],[30].

Like-named read-outs stand apart in the source and are kept apart here.

T1 sequence (Q7Z2W7 whole entry): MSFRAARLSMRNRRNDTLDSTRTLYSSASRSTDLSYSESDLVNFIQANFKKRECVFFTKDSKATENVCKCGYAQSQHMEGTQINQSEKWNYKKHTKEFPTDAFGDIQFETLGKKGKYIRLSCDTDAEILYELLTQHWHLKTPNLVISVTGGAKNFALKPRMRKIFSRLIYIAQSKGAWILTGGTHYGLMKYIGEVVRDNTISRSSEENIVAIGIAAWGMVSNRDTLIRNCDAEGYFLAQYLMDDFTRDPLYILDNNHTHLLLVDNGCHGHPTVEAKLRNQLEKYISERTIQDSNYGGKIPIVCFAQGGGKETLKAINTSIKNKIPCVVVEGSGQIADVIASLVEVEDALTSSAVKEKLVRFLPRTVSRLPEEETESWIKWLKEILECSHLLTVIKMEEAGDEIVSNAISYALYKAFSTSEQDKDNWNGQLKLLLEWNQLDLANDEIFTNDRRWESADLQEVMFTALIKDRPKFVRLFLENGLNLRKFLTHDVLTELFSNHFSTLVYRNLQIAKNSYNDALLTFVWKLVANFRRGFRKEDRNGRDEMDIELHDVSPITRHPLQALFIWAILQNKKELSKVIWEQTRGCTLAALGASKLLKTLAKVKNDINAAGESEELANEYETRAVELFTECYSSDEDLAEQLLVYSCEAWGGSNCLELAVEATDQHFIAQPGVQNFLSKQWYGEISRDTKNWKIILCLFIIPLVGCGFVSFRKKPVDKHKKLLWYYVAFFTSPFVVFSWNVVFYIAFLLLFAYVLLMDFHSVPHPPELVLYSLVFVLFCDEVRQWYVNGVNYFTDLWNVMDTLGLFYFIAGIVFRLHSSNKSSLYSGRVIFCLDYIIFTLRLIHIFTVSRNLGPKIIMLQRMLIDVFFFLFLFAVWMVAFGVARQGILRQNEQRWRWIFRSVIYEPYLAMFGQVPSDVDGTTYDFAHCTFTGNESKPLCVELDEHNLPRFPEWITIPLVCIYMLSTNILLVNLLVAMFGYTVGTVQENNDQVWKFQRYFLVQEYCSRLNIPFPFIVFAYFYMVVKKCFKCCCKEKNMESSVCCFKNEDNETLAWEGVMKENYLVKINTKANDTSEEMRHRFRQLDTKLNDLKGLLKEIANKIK

Broadly, the IC50 is the point on the concentration scale where inhibition reaches its midpoint. In the case of `c1ccc(COc2ccc3[nH]cc(CCNCc4ccc(Oc5ccccc5)cc4)c3c2)cc1` [Compound 4], the androgen-induced migration result in experiment [1] is “Superimposable results”. Further, in experiment [2], the androgen-induced invasion entry is on record as “Superimposable results”. In addition, the BrdU incorporation result in experiment [3] was “did not affect”. Moreover, the “wound-gap closure in androgen-treated cells” value in experiment [4] is reported as “stronger effect”. Moreover, the IC50 in experiment [5] (300 µM menthol-evoked currents, read-out: Potency IC50) is 0.204 ± 0.015 µM; in experiment [5] (TRPM8 antagonist, menthol-evoked currents, one range for both compounds, read-out: IC50), 0.204 to 0.34 µM. The “inhibitory effect on menthol-evoked TRPM8 currents” value in experiment [5] (dependence on concentration) is given as “concentration-dependent”.
As to `COC(=O)[C@H](Cc1c[nH]c2ccccc12)N(Cc1ccccc1)Cc1ccccc1` [Compound 6], in experiment [1], the androgen-induced migration result is “Superimposable results”. The androgen-induced invasion entry in experiment [2] is listed as “Superimposable results”. In addition, the BrdU incorporation result in experiment [3] is on record as “did not affect”. Moreover, in experiment [4], the “wound-gap closure in androgen-treated cells” value is recorded as “stronger effect”.
